Data on 24 compounds can be found in patent US8088930B2, “Benzimidazole derivatives” (Hoffmann-La Roche Inc., priority 2008, dated 2012).

Structures are written as SMILES.

The target in this test is T1, FXR ligand binding domain (GST-FXR LBD fusion protein, human FXR aa 193-473) (Homo sapiens, UniProt Q96RI1).
T1 construct: fused on or other part: Glutathione-S-transferase (GST) fused N-terminally to the FXR LBD, used to capture the protein on glutathione SPA beads
T1 sequence (Q96RI1 211-486 limits assumed): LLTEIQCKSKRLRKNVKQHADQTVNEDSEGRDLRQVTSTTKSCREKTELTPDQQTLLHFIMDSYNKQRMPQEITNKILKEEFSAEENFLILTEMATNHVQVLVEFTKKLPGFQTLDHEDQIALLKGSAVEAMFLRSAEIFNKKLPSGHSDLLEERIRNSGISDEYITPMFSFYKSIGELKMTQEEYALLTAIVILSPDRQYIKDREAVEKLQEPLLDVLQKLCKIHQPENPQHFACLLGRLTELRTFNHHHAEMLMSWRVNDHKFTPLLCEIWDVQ
Description: Radioligand binding assay (scintillation proximity, radioligand displacement). The note with it: 40 nM GST-FXR LBD on SPA beads, test compound 6×10^−9 M to 2.5×10^−5 M, read-out: h-IC50 Binding. As to the method:
The following tests were carried out in order to determine the activity of the compounds of formula (I).
To accomplish this, the portions of the sequences encoding the FXR LBD were amplified by polymerase chain reaction (PCR) from a full-length clone by PCR and then subcloned into the plasmid vectors. The final clone was verified by DNA sequence analysis.
The induction, expression, and subsequent purification of GST-LBD fusion protein was performed in E. coli strain BL21(pLysS) cells by standard methods (Current Protocols in Molecular Biology, Wiley Press, ed. Ausubel et al.).
Radioligand Binding Assay
Binding of test substances to the FXR ligand binding domain was assessed in a radioligand displacement assay. The assay was performed in a buffer consisting of 50 mM Hepes, pH 7.4, 10 mM NaCl, 5 mM MgCl2, 0.01% CHAPS. For each reaction well in a 96-well plate, 40 nM of GST-FXR LBD fusion protein was bound to 10 μg glutathione yttrium silicate SPA beads (Pharmacia Amersham) in a final volume of 50 μl by shaking. A radioligand (e.g., 20 nM of 2,N-dicyclohexyl-2-[2-(2,4 dimethoxy-phenyl)-benzoimidazol-1-yl]-acetamide) and test compounds were added, and scintillation proximity counting was performed. All binding assays were performed in 96-well plates and the amount of bound ligand was measured on a Packard TopCount using OptiPlates (Packard).
On the technique in general: SPA uses beads or plates that emit light when radiolabelled molecules are held near them.
One may read the IC50 as the point on the concentration scale where inhibition reaches its midpoint. Regarding `CC(C)(Oc1ccc(OCC(C2CCCCC2)n2c(-c3ccc(Cl)cc3)nc3cc(F)c(F)cc32)nc1)C(=O)O` (single isomer, unassigned; (-)) [Example 49, (−)-2-(6-{2-[2-(4-Chloro-phenyl)-5,6-difluoro-benzoimidazol-1-yl]-2-cyclohexyl-ethoxy}-pyridin-3-yloxy)-2-methyl-propionic acid], the IC50 turned out to be 400 nM. On to `O=C(O)c1ccc(OCC(C2CCCCC2)n2c(-c3ccc(Cl)cc3)nc3ccccc32)cc1` (stereo not drawn) [Example 32, 4-{2-[2-(4-Chloro-phenyl)-benzoimidazol-1-yl]-2-cyclohexyl-ethoxy}-benzoic acid], for which the IC50 is 1000 nM. For `Cc1cc(-c2nnn[nH]2)cc(C)c1OCC(C1CCCC1)n1c(-c2ccc(Cl)cc2)nc2cc(F)c(F)cc21` (stereo not drawn) [Example 135, 2-(4-Chloro-phenyl)-1-{1-cyclopentyl-2-[2,6-dimethyl-4-(1H-tetrazol-5-yl)-phenoxy]-ethyl}-5,6-difluoro-1H-benzoimidazole], the half-inhibitory concentration (IC50) is 20 nM. Take `Cc1c(OCC(C2CCCCC2)n2c(-c3ccc(Cl)cc3)nc3cc(F)c(F)cc32)ccc(OC(C)(C)C(=O)O)c1C` (stereo not drawn) [Example 93, 2-(4-{2-[2-(4-Chloro-phenyl)-5,6-difluoro-benzoimidazol-1-yl]-2-cyclohexyl-ethoxy}-2,3-dimethyl-phenoxy)-2-methyl-propionic acid]: the half-maximal inhibitory concentration (IC50) amounted to 300 nM. In the case of `O=C(O)c1cc(F)c(OCC(C2CCCCC2)n2c(-c3ccc(Cl)cc3)nc3cc(F)c(F)cc32)c(F)c1` (stereo not drawn) [Example 85, 4-{2-[2-(4-Chloro-phenyl)-5,6-difluoro-benzoimidazol-1-yl]-2-cyclohexyl-ethoxy}-3,5-difluoro-benzoic acid], the concentration for half-maximal inhibition (IC50) worked out at 10 nM.

Take `CC(OCC(C1CCCCC1)n1c(-c2ccc(Cl)cc2)nc2cc(F)c(F)cc21)c1ccc(C(=O)O)cc1` (stereo not drawn) [Example 79, 4-(1-{2-[2-(4-Chloro-phenyl)-5,6-difluoro-benzoimidazol-1-yl]-2-cyclohexyl-ethoxy}-ethyl)-benzoic acid]: the IC50 was 600 nM. With `COc1ccc(-c2nc3cc(F)c(F)cc3n2C(COc2ccc(C(=O)O)cn2)C2CCCCC2)c(OC)n1` (single isomer, unassigned; (+)) [Example 74, (+)-6-{2-Cyclohexyl-2-[2-(2,6-dimethoxy-pyridin-3-yl)-5,6-difluoro-benzoimidazol-1-yl]-ethoxy}-nicotinic acid], the IC50 stood at 500 nM. Turning to `O=C(O)c1ccc(OCC(C2CCCCC2)n2c(-c3ccc(Cl)cc3)nc3cc(F)c(F)cc32)c(C(F)(F)F)c1` (single isomer, unassigned; (+)) [Example 40, (+)-4-{2-[2-(4-Chloro-phenyl)-5,6-difluoro-benzoimidazol-1-yl]-2-cyclohexyl-ethoxy}-3-trifluoromethyl-benzoic acid], the IC50 was found to be 100 nM.

In the case of `O=C(O)C1(Oc2ccc(OCC(C3CCCCC3)n3c(-c4ccc(Cl)cc4)nc4cc(F)c(F)cc43)cc2)CCC1` (stereo not drawn) [Example 117, 1-(4-{2-[2-(4-Chloro-phenyl)-5,6-difluoro-benzoimidazol-1-yl]-2-cyclohexyl-ethoxy}-phenoxy)-cyclobutanecarboxylic acid], the IC50 was 40 nM.

For `O=C(O)C1(Oc2ccc(OCC(C3CCCCC3)n3c(-c4ccc(Cl)cc4)nc4cc(F)c(F)cc43)nc2)CC1` (single isomer, unassigned; (+)) [Example 52, (+)-1-(6-{2-[2-(4-Chloro-phenyl)-5,6-difluoro-benzoimidazol-1-yl]-2-cyclohexyl-ethoxy}-pyridin-3-yloxy)-cyclopropanecarboxylic acid], the IC50 is 80 nM. With `Fc1cc2nc(-c3ccc(Cl)cc3)n(C(COCC3CCCCC3)C3CCCCC3)c2cc1F` (single isomer, unassigned; (-)) [Example 2, (−)-2-(4-Chloro-phenyl)-1-(1-cyclohexyl-2-cyclohexylmethoxy-ethyl)-5,6-difluoro-1H-benzoimidazole], the half-maximal inhibitory concentration (IC50) worked out at 60 nM. For `O=C(O)c1cc(F)c(OCC(C2CCCCC2)n2c(-c3ccc(Cl)cc3)nc3ccccc32)c(F)c1` (single isomer, unassigned; (+)) [Example 103, (+)-4-{2-[2-(4-Chloro-phenyl)-benzoimidazol-1-yl]-2-cyclohexyl-ethoxy}-3,5-difluoro-benzoic acid], the IC50 stood at 100 nM. Consider `CC(C)(Oc1ccc(C(=O)O)cc1)C(C1CCCCC1)n1c(-c2ccc(Cl)cc2)nc2cc(F)c(F)cc21` (single isomer, unassigned; (-)) [Example 89, (−)-4-{2-[2-(4-Chloro-phenyl)-5,6-difluoro-benzoimidazol-1-yl]-2-cyclohexyl-1,1-dimethyl-ethoxy}-benzoic acid], for which the IC50 stood at 10 nM. Take `O=C(O)c1c(F)cc(OCC(C2CCCCC2)n2c(-c3ccc(Cl)cc3)nc3cc(F)c(F)cc32)cc1F` (single isomer, unassigned; (+)) [Example 43, (+)-4-{2-[2-(4-Chloro-phenyl)-5,6-difluoro-benzoimidazol-1-yl]-2-cyclohexyl-ethoxy}-2,6-difluoro-benzoic acid]: the half-inhibitory concentration (IC50) was found to be 700 nM.

Turning to `O=C(O)c1cc(F)c(OCC(C2CCCCC2)n2c(-c3ccc(Cl)cc3)nc3cc(F)c(F)cc32)c(F)c1` (single isomer, unassigned; (-)) [Example 86, (−)-4-{2-[2-(4-Chloro-phenyl)-5,6-difluoro-benzoimidazol-1-yl]-2-cyclohexyl-ethoxy}-3,5-difluoro-benzoic acid], the IC50 turned out to be 3 nM. Regarding `CC(C)(Oc1ccc(OCC(C2CCCCC2)n2c(-c3ccc(Cl)cc3)nc3cc(F)c(F)cc32)nc1)C(=O)O` (single isomer, unassigned; (+)) [Example 48, (+)-2-(6-{2-[2-(4-Chloro-phenyl)-5,6-difluoro-benzoimidazol-1-yl]-2-cyclohexyl-ethoxy}-pyridin-3-yloxy)-2-methyl-propionic acid], the concentration for half-maximal inhibition (IC50) was determined as 500 nM. For the compound `O=C(O)c1ccc(OCC(C2CCCCC2)n2c(-c3ccc(Cl)cc3)nc3cc(F)c(F)cc32)nc1` (stereo not drawn) [Example 19, 6-{2-[2-(4-Chloro-phenyl)-5,6-difluoro-benzoimidazol-1-yl]-2-cyclohexyl-ethoxy}-nicotinic acid], the IC50 turned out to be 50 nM. `CC(C)(Oc1c(F)cc(-c2nnn[nH]2)cc1F)C(C1CCCCC1)n1c(-c2ccc(Cl)cc2)nc2cc(F)c(F)cc21` (single isomer, unassigned) [Example 115, (+) or (−)-2-(4-Chloro-phenyl)-1-[1-cyclohexyl-2-[2,6-difluoro-4-(1H-tetrazol-5-yl)-phenoxy]-2-methyl-propyl]-5,6-difluoro-1H-benzoimidazole]: the IC50 was 2 nM. As to `O=C(O)c1ccc(COCC(C2CCCCC2)n2c(-c3ccc(Cl)cc3)nc3cc(F)c(F)cc32)c(F)c1` (single isomer, unassigned; (+)) [Example 64, (+)-4-{2-[2-(4-Chloro-phenyl)-5,6-difluoro-benzoimidazol-yl]-2-cyclohexyl-ethoxymethyl}-3-fluoro-benzoic], the IC50 stood at 300 nM. Turning to `O=C(O)c1cnc(OCC(C2CCCCC2)n2c(-c3ccc(Cl)cc3)nc3cc(F)c(F)cc32)c2ccsc12` (single isomer, unassigned; (+)) [Example 27, (+)-4-{2-[2-(4-Chloro-phenyl)-5,6-difluoro-benzoimidazol-1-yl]-2-cyclohexyl-ethoxy}-thieno[3,2-c]pyridine-7-carboxylic acid], the IC50 turned out to be 300 nM.

Regarding `O=C(O)c1ccnc(OCC(C2CCCCC2)n2c(-c3ccc(Cl)cc3)nc3cc(F)c(F)cc32)c1` (stereo not drawn) [Example 37, 2-{2-[2-(4-Chloro-phenyl)-5,6-difluoro-benzoimidazol-1-yl]-2-cyclohexyl-ethoxy}-isonicotinic acid], the concentration for half-maximal inhibition (IC50) was 400 nM. As for `Cc1cc(C(=O)O)ccc1OCC(C1CCCCC1)n1c(-c2ccc(Cl)cc2)nc2cc(F)c(F)cc21` (single isomer, unassigned; (+)) [Example 13, (+)-4-{2-[2-(4-Chloro-phenyl)-5,6-difluoro-benzoimidazol-1-yl]-2-cyclohexyl-ethoxy}-3-methyl-benzoic acid], the IC50 came to 100 nM. `O=C(O)c1cc(F)c(OCC(C2CCCCC2)n2c(-c3ccc(Cl)cc3)nc3ccccc32)c(F)c1` (single isomer, unassigned; (-)) [Example 104, (−)-4-{2-[2-(4-Chloro-phenyl)-benzoimidazol-1-yl]-2-cyclohexyl-ethoxy}-3,5-difluoro-benzoic acid]: the IC50 came out at 50 nM.

In the case of `Cc1cc(C(=O)O)cc(C)c1OCC(C1CCCCC1)n1c(-c2ccc(Cl)cc2)nc2cc(F)c(F)cc21` (single isomer, unassigned; (-)) [Example 55, (−)-4-{2-[2-(4-Chloro-phenyl)-5,6-difluoro-benzoimidazol-1-yl]-2-cyclohexyl-ethoxy}-3,5-dimethyl-benzoic acid], the IC50 stood at 4 nM.
